Consider seven compounds from patent US7144881B2, “Arylcyclopropylcarboxylic amides as potassium channel openers” (Bristol-Myers Squibb Company, priority 2002, dated 2006).

Test [1] has as its target voltage-gated K+ channel KCNQ2 (Homo sapiens, UniProt O43526). As to the kind of experiment: Thallium flux assay for openers of KCNQ potassium channels. Type of test: cell-based. Particulars: 10 point concentration series, 50% of the maximal response. An excerpt: A thallium flux assay was used to detect and characterize openers of KCNQ potassium channels. The thallium assay is generally described in International application WO 02/31508 published Apr. 18, 2002. More specifically, the thallium influx assay to detect compounds that block or open the voltage-gated K^+ channel KCNQ2 is described in Example IV of the published WO 02/31508 application.
For data analysis, the amplitude of the average of the negative controls was subtracted from all wells. The amplitudes of the test compounds were then compared to the value of four standard deviations of the negative control wells. The lowest concentration of a test compound sufficient to generate a signal amplitude greater than or equal to four standard deviations from the amplitude of the negative controls was defined as the minimal active concentration.
For generating EC50 values, compounds were serially diluted in 1:3 volume increments to produce a 10 point concentration series. EC50 values were calculated by fitting the resulting amplitudes to a single-site logistic equation. EC50 was defined as the concentration of test compound required to yield 50% of the maximal response. Maximal response (Maximal opening) was the largest signal amplitude above the negative control generated by any concentration of a test compound.

Test [2] deals with T1, mKCNQ2 channels (Mus musculus, UniProt Q9Z351).
T1 construct: expressed in transfected cells
As to the kind of experiment: Whole-cell patch-clamp recordings of mKCNQ2 currents. Particulars: HEK 293 stable cell line expressing mKCNQ2. The format is cell-based. The method, then: Whole-cell patch-clamp recordings were made from an HEK 293 stable cell line expressing mKCNQ2 channels, maintained in culture for 1–2 days. Patch pipettes had initial resistances of 2.5–4 MΩ. Currents were recorded with an EPC-9 amplifier (HEKA, Lambrecht, Germany) controlled with software (Pulse, HEKA) run on a standard lab PC. Series resistance compensation was used during current recording, and set at 80%. The series resistance (R) and cell capacitance (C) were determined electronically by subtracting the capacitive currents at the onset and offset of a 5 mV voltage step. The cancellation of whole-cell capacitive transients was virtually complete in all cells. Analog current signals were low-pass filtered at 2.9 kHz using a four-pole Bessel filter −3 dB) and stored on a local network server computer at a sampling rate of […]. All recordings were performed at room temperature (20–22° C.). The pipette solution contained (mM): KCl, 150; CaCl2, 2.5; EGTA, 5; MgCl2, 1; HEPES, 10; pH to 7.3 with KOH, and Osmolality of 290–300 mOsm. The extracellular solution contained (mM): NaCl, 140; KCl, 2.5; CaCl2, 2.5; MgCl2, 1; glucose, 10; HEPES, 10; pH to 7.3 with NaOH, and Osmolality of 305–310 mOsm […]

SMILES strings stand for the structures.

By EC50 is commonly meant the concentration needed to bring the measured effect to its halfway point. A high value points to a less potent agent. For the compound `C[C@H](NC(=O)[C@@H]1C[C@H]1c1ccccc1)c1cccc(-c2cccnc2)c1` [Example 32, (S)-2-Phenyl-cyclopropanecarboxylicacid [1-(3-pyridin-3-yl-phenyl)-ethyl]-amide], the midpoint of the response in test [1], the EC50, lay at 1 nM.

`O=C(N[C@@H](CO)c1ccc2ccccc2c1)C1CC1c1ccccc1` (stereo partly drawn) [Example 15, 2-(phenyl)-cyclopropanecarboxylic acid(2-hydroxy-1-naphthalen-2-yl-ethyl)-amide]: the response in test [1] was half-maximal at 1 nM (EC50).

Compound `O=C(N[C@@H](CO)c1ccc2ccccc2c1)C1CC1c1ccccc1F` (stereo partly drawn) [Example 11, 2-(2-Fluoro-phenyl)-cyclopropanecarboxylic acid(2-hydroxy-1-naphthalen-2-yl-ethyl)-amide] showed an EC50 in test [1] of 1440 nM.

Compound `O=C(N[C@@H](CO)c1ccc2ccccc2c1)C1CC1c1cc(F)ccc1F` (stereo partly drawn) [Example 14, 2-(2,5-Difluoro-phenyl)-cyclopropanecarboxylic acid(2-hydroxy-1-naphthalen-2-yl-ethyl)-amide] registered an EC50 in test [1] of 1 nM.

In the case of `O=C(N[C@@H](CO)c1ccc2ccccc2c1)C1CC1c1ccccc1Cl` (stereo partly drawn) [Example 9, 2-(2-Chloro-phenyl)-cyclopropanecarboxylic acid(2-hydroxy-1-naphthalen-2-yl-ethyl)-amide], the midpoint of the response in test [1], the EC50, lay at 22 nM.

Regarding `C[C@H](NC(=O)C1CC1c1cccc(F)c1)c1cccc(-c2ccc(Cl)nc2)c1` (stereo partly drawn) [Example 34, (S)-2-(3-Fluoro-phenyl)-cyclopropanecarboxylicacid {1-[3-(6-chloro-pyridin-3-yl)-phenyl]-ethyl}-amide], the EC50 in test [1] stood at 2210 nM.

Turning to `O=C(N[C@@H](CO)c1ccc2ccccc2c1)C1CC1c1ccc(F)cc1` (stereo partly drawn) [Example 13, 2-(4-Fluoro-phenyl)-cyclopropanecarboxylic acid(2-hydroxy-1-naphthalen-2-yl-ethyl)-amide], the EC50 in test [2] (@ −40 mV, room temperature) came to 0.597 µM; in test [1], 12 nM. Besides, the “Imax (%)” value in test [2] (Imax from Hill-type curve fit) is on record as 1232%.
